Patent US4859664A, “Derivatives of 2,3,4,5,6,7-hexahydro-2,7-methano-1,5-benzoxazonines and -1,4-benzoxazonines, processes for their production and their use as pharmaceuticals” (priority 1986, dated 1989)

Assays:
Format in all cases: in vivo, male NMRI mice
[1] = influencing of the amphetamine group toxicity
Procedure: (§1) […]. They were given a standard feed and water ad libitum up to the commencement of the experiments.
(§2) The test compounds were administered in a volume of 10 ml./kg./body weight per mouse. As carrier, there was used physiological sodium chloride solution or a suspension of 0.5% tragacanth in physiological sodium chloride solution.
3. Influencing of the amphetamine group toxicity.
There was investigated the influence of the test compounds on the mortality of amphetamine-treated, aggregated mice. The dosaging of d-amphetamine was 15 mg./kg., which should permit the recognition not only of a synergism but also of an antagonism towards a sympathomimetic compound. Carrying out the experiment:
30 minutes after the subcutaneous administration of the test substance, the animals received subcutaneously 15 mg./kg. of d-amphetamine sulphate. The number of dead animals was recorded after 2, 4 and 7 hours. For the maintenance of the group size, the dead animals were replaced by untreated animals (6 animals/dosage group).

[2] = antidepressive action: reserpine reversal test (tetrabenazine); conditions: 50 and 25 mg./kg. s.c.
Procedure: For the pharmacological investigations described in the following, there were used male NMRI mice with a weight of from 15 to 30 g. The animals were kept under usual laboratory conditions, randomised and subjected to a light-dark change with a 12 hour rhythm. They were given a standard feed and water ad libitum up to the commencement of the experiments.
as §2
7. Antidepressive action.
There was used the reserpine reversal test (see G. Zettler, K. Mahler and F. Daniel, Naunyn-Schmiedeberg's Arch. Exp. Path. Pharmacol., 238, 468/1960; ibid. 236, 422/1958). 30 minutes after the subcutaneous administration of the test compounds, the animals (6 animals per dosage group) received subcutaneously 40 mg./kg. tetrabenazine dissolved in 0.5% aqueous ascorbic acid solution. 30 and 60 minutes after the tetrabenazine administration, the animals were placed on a vertical rod (length 90 cm., diameter 1.5 cm., coiled round with 0.2 cm. thick thread) and observed for 30 seconds. Those animals which remained motionless during this time were evaluated as being cataleptic. Previously, the degree of ptosis was assessed.

[3] = influencing of hexobarbital narcosis; conditions: for period of narcosis ± SEM: hexobarbital sodium 100 mg./kg. i.p.
Procedure: as §1, §2
The experimental results are given as average values with a mean error of the average value (x±S.E.M.). The ED50 values were calculated according to Litchfield and Wilcoxon (J. Pharmacol. Exp. Ther., 96, 99/1949). The compounds were thereby tested in 4 dosages (p≤0.5).
4. Influencing of hexobarbital narcosis.
The test compounds were administered subcutaneously to 5 animals per dosage group. After 30 minutes, 100 mg./kg. hexobarbital sodium was administered intraperitoneally. 2 to 3 minutes after this injection, the animals allowed themselves to be laid on their backs. For each animal, there was measured the time in minutes from the commencement of the back position up to the time when the animals themselves twice successively again assumed the abdominal position.

[4] = 25 mg/kg s.c. + d-amphetamine sulphate 15 mg./kg. s.c.
[5] = 50 mg/kg s.c. + d-amphetamine sulphate 15 mg./kg. s.c.

SMILES	% of deceased animals after 2 hrs. [1, 4]	% of deceased animals after 4 hrs. [1, 4]	% of deceased animals after 7 hrs. [1, 4]	% of deceased animals, total [1, 4]	% of deceased animals after 2 hrs. [1, 5]	% of deceased animals after 4 hrs. [1, 5]	% of deceased animals after 7 hrs. [1, 5]	% of deceased animals, total [1, 5]	influence on tetrabenazine-induced catalepsy [2]	influence on tetrabenazine-induced ptosis [2]	change with regard to hexabarbital sodium ([3]; 25 mg/kg sc)	period of narcosis ± SEM ([3]; 25 mg/kg sc)	effect on period of narcosis ([3]; 50 mg./kg.)	change with regard to hexabarbital sodium ([3]; 50 mg/kg sc)	period of narcosis ± SEM ([3]; 50 mg/kg sc)
CC12CCNCC(C1)c1ccccc1O2 (stereo not shown) [Example 6, 2,3,4,5,6,7-hexahydro-2-methyl-2,7-methano-1,5-benzoxazonine]	0%	0%	16.7%	16.7%	0%	16.7%	0%	16.7%	did not influence	did not influence					
CC1NCCC2(C)CC1c1ccccc1O2 (stereo not shown) [Example 9, 2,3,4,5,6,7-hexahydro-2,6-dimethyl-2,7-methano-1,5-benzoxazonine]	16.7%	0%	0%	16.7%	0%	0%	33.3%	33.3%	did not influence	did not influence	-29.4 min	63 ± 21.0 min	statistically verified shortening of the period of narcosis	-53.4 min	39 ± 12.4 min
